A short description of data set [1]: Pharmacokinetics after i.v. administration in rats. Format: in vivo. The conditions noted are these: rat, iv, male Wistar rats, 16 mg/kg B.W. On the procedure:
A formulation of compound (20R)-I(e) dissolved in saline (0.9% NaCl): propylene glycol:ethanol (5:3:2; v/v/v) was prepared at a concentration of 20 mg/ml.
Nine male Wistar rats (150-200 g) were fasted 8 hours prior to the initiation of the study. At the initiation of the study, the nine rats received 0.8 ml/kg body weight (B.W.) of the dosing formulation by intravenous (i.v.) injection to deliver 16 mg of compound (20R)-I(e)/kg B.W. Blood was collected from three animals at 0 (day-1), 5, 15, 30, 60, 120, 180 and 240 minutes post dosing. At each time point, 1 ml of blood was collected from the orbital sinus in unpreserved Microtainer tubes. Separated serum samples were kept frozen at −80° C. until analysis. The concentration of compound (20R)-I(e) in the serum samples was quantified using a High Performance Liquid Chromatographic method with Mass Spectroscopy detection (LC MS/MS). An internal standard was added to an aliquot of […] of serum sample and extracted using solid phase extraction (SPE). Samples were passed through C18-SPE cartridges then compound (20R)-I(e) and the internal standard were eluted with 1 ml of methanol. Extracts were evaporated to dryness under nitrogen. The residues were reconstituted in […] of methanol:water (8:2; v/v) and analyzed by LC MS/MS. (iii) Results: Summary of the calculated pharmacokinetic parameters for the i.v. administration of a 16 mg/kg B.W. dose of compound (20R)-I(e) is in the Table below. The Area-Under-Curve (AUC) was calculated from T=0 to 240 min. The maximum concentration (Cmax) was determined from the mean serum concentration versus time profile. The elimination half life (T1/2) was calculated from the elimination phase of the concentration versus time profile assuming first order kinetic elimination.

A further data set addresses T1, CYP24 (Homo sapiens, UniProt Q07973).
T1 construct: expressed in transfected cells; host or cells: V79-CYP24 cells (V79 = Chinese hamster lung fibroblasts, own knowledge; kept under hygromycin selection)
T1 sequence (Q07973 36-514): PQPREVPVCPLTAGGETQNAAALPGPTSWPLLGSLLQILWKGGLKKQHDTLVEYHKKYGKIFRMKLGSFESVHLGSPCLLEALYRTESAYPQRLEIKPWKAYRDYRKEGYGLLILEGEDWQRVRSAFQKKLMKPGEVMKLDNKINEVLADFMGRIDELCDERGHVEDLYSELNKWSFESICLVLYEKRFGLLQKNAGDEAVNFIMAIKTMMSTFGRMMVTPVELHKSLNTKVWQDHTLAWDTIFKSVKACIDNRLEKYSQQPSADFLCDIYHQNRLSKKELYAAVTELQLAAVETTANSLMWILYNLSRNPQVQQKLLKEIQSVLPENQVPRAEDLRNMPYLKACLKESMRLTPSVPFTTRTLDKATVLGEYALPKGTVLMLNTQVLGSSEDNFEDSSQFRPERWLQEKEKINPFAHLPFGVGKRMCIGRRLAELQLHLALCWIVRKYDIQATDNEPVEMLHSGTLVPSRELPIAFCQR
Briefly: CYP24 enzyme assay (V79-CYP24 cells, 3H-1α,25(OH)2D3 substrate). Format: cell-based. The conditions noted are these: substrate 20 nM, 2 hours, read-out: IC50 in the inhibition of CYP24. How it is done:
(i) Material and Reagents:
Substrates (1 mM) reconstituted in isopropanol
1. Preparation of Cell Suspension • On the day of the assay, washed the monolayer of V79-CYP24 cells once with 1×PBS buffer and then trypsinized for 5 min at room temperature (approx. 22° C.). Added 1×PBS. Collected cells into tube, centrifuged cells (500×g, 5 min) and resuspended in DMEM+1% BSA media. Counted cells and adjusted density to 2 million/1 mL.
2. Cell Plating • Added 80 μl of cell suspension to appropriately labeled wells of a 96-well plate. Incubated plate for 45 minutes at 37° C. in a humidified atmosphere containing 5% CO2.
3. Compound Addition • Added 10 μl of inhibitor (10^−6 to 10^−10 M) and then after 35-40 min added 10 μl of substrate [^3H-1β]-1α,25(OH)2D3 (20 nM) for 2 hours at 37° C. in a humidified atmosphere containing 5% CO2. Both inhibitor and substrate were prepared in DMEM with 1% BSA media.
4. Lipid Extraction and Counting • Added 250 μl of methanol to stop the reaction and mixed. Added […] of dichloromethane, covered block and vortexed. Added […] of dichloromethane again, added […] of saturated KCl and vortexed. Centrifuged at 3000 rpm for 30 min. Triplicate 100 μl aliquots of aqueous fraction were mixed with 200 μl of scintillation fluid and the radioactivity was measured using a scintillation counter. All values were normalized for background. (iii) Results: • 1. […] (iv) Reference: 1. PCT Patent Application Serial No. PCT/CA03/00620

For another data set, the system named is SCC-25 cells. Briefly: [3H]-Thymidine proliferation assay with SCC-25 cells. In kind it is cell-based. The conditions noted are these: head and neck cancer cells, 3 days, 3H-thymidine incorporation. How it is done: 1. Preparation of Cell Suspension • When SCC-25 cells were 70-80% confluent, aspirated media. Washed the cells with 1×PBS. Trypsinized with trypsin-EDTA from the plate, collected cells from the tissue culture flask, centrifuged (500×g, 5 min) and resuspended in media.
2. Cell Plating. • Counted the cells and adjusted the cell density to 10,000/ml. Added 200 μl per well in a 96 well plate. Incubated plate for 24 h at 37° C. in a humidified atmosphere plus 5% CO2. Aspirated used media and replaced with 175 μl per well with media.
3. Substrate Addition. • Added 25 μl of compound (final concentration 10^−7 M, 5×10^−8 M, 10^−8 M, 5×10^−9 M, 10^−10 M or 0 M) into each designated well. Incubated plates for 3 days at 37° C. in a humidified atmosphere plus 5% CO2.
4. ^3H-Thymidine Incorporation. • Added ^3H-thymidine at 0.02 μCi per well and incubated at 37° C. in a humidified atmosphere plus 5% CO2 for 6 h.
5. Plate Harvesting. • Aspirated all media and washed cells with 1×PBS. Trypsinized cells for 30 min at 37° C. in a humidified atmosphere plus 5% CO2. Harvested cells onto a 96 well filter plate (Millipore) using a Tomtec Cell Harvestor, according to manufacturers instructions.
6. Scintillation Counting. • Added 25 μl of scintillation fluid per well. Counted the plate using a scintillation counter. Results: Compound (20R)-1(e) inhibited SCC-25 cell proliferation.
(Incorporation of labelled thymidine or its analogues reports DNA synthesis.)

Turning to `C=C1/C(=C\C=C2/CCC[C@]3(C)C([C@H](C)C/C=C/C(=NOC)C(C)(C)C)=CC[C@@H]23)C[C@@H](O)C[C@@H]1O` [(20R)-I(e)], in data set [1] (mean serum concentration), the concentration peaked (Cmax) at 38.9 ng/mL. In addition, the exposure (AUC) in data set [1] (serum, T=0 to 240 min) was determined as 39.6 ng·h/mL. Moreover, the half-life in data set [1] (serum, first order elimination assumed, read-out: T1/2 (elimination half life) (converted)) was 15 min. In addition, the IC50 at CYP24 was 20.7 nM. In the data set on SCC-25 cells, the “Inhibition of SCC-25 cell proliferation” value is on record as “inhibited”.

In general, Cmax refers to the peak of the concentration-time curve. The AUC is the area under the concentration-time curve, a measure of exposure. Usually IC50 stands for the concentration that inhibits the measured activity by half.

For the origin of these results see US8906888B2, “Low-calcemic 16,23-diene 25-oxime analogs of 1α,25-dihydroxy vitamin D3” (Cytochroma Inc., priority 2005, dated 2014).
